These results are taken from ChEMBL document CHEMBL1201862, “PubChem BioAssay data set” (2004).

The target of experiment [1] is T1, Rac GTPase-activating protein 1 (Homo sapiens, UniProt Q9H0H5).
T1 sequence (Q9H0H5 whole entry): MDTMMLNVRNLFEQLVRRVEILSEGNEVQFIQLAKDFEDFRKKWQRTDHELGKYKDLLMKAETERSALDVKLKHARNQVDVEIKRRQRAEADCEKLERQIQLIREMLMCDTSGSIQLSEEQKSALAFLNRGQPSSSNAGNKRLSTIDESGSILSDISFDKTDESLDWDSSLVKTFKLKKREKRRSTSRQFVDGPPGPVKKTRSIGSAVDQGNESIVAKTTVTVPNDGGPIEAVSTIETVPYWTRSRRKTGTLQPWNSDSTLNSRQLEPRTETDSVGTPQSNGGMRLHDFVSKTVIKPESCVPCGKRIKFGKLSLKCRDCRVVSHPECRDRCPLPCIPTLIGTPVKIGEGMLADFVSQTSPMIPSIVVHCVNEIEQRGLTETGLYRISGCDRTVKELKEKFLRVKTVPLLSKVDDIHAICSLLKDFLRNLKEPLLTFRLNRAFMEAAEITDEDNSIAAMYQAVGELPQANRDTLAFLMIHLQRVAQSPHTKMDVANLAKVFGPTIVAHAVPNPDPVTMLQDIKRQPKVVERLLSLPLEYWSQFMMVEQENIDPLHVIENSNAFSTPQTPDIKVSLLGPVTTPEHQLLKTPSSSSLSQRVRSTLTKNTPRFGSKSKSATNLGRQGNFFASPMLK
Briefly: blockers of MgcRacGAP-driven Rac1 GTP hydrolysis – biochemical, ADP Hunter fluorescence, primary and confirmatory, confirmation (AID 624330). It is filed as functional.

Another experiment has as its target Cytochrome P450 2C19 (Homo sapiens, UniProt P33261). Put plainly: Cytochrome panel assay with activity outcomes. Panel member name: p450-cyp2c19 Compounds with AC50 equal or less than 10 uM are considered active. The following applies: read-out: AC50. It is filed as functional.
The target of another experiment is Cytochrome P450 2C9 (Homo sapiens, UniProt P11712).
Experiment [2] in a line: Luminescence Cell-Based Dose Response HTS to Identify Activators of Luciferase Translation or Activity in H4 […] Cells. [Related pubchem assays: 1829 (Project Summary), 1814 (Primary HTS)]. The experiment is classed as functional.
The test system of the next experiment is H4. Put plainly: Luminescence Cell-Based Dose Response HTS to Identify Activators of 5'UTR Stem-Loop Driven Prion Protein mRNA Translation in H4 Neuroglioblastoma Cells. [Related pubchem assays: 1829 (Project Summary), 1814 (Primary HTS)]. The experiment is classed as functional. Conditions: Homo sapiens.
Experiment [3] concerns Streptococcus sp. 'group A'. Briefly: Streptococcus pyogenes SK(-)GAS viability under kanamycin – luminescence, BacTiterGlo, confirmation, counter-screen for streptokinase expression inhibitor project, dose response (AID 1900). The experiment is classed as functional, organism-based. (Counterscreens check selectivity or assay interference.)
Another experiment relates to Streptococcus. Put plainly: GAS UMAA2166 growth inhibition – luminescence, BacTiterGlo, counter-screen for streptokinase expression inhibitor project, dose response (AID 1915).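 Note: potency for reduction of bacterial viability or growth.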 The experiment is classed as functional, organism-based.
The target in the next experiment is T2, Streptokinase A (Streptococcus pyogenes serotype M1, UniProt P10520).
T2 sequence (P10520 whole entry): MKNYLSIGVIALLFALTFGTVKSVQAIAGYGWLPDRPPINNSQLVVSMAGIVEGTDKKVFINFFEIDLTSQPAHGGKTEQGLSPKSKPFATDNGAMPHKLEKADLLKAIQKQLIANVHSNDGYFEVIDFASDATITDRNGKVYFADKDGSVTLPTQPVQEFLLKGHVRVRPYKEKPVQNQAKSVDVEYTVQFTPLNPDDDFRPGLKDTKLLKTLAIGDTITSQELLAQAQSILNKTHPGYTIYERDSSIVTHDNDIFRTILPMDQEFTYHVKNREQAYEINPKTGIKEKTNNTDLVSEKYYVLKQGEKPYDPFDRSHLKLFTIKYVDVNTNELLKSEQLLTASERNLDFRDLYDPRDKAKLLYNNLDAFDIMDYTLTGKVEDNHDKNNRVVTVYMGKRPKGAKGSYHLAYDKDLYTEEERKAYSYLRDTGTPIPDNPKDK
Briefly: viability-normalized secreted streptokinase activity reduction – plasminogen activation absorbance, OD405, dose response (AID 1914).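 Note: secreted streptokinase activity via plasminogen activation per viability signal from cell pellet.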 It is filed as functional, Streptococcus pyogenes M1 GAS.

The target of experiment [4] is T3, Corticotropin-releasing factor receptor 2/Corticotropin-releasing factor-binding protein (Homo sapiens, UniProt P24387+Q13324).
T3 sequence (Q13324 whole entry): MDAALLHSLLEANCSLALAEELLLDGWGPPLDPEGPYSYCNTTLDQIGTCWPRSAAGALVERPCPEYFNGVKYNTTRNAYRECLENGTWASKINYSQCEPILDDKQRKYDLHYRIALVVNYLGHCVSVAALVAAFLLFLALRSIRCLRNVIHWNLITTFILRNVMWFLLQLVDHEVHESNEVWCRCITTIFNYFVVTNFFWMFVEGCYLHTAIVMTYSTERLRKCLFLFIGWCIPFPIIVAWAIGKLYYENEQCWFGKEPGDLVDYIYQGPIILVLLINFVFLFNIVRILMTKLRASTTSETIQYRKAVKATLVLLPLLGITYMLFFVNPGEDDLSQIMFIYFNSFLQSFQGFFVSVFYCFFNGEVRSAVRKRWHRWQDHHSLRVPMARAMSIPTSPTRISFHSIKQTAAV
T3 sequence (P24387 whole entry): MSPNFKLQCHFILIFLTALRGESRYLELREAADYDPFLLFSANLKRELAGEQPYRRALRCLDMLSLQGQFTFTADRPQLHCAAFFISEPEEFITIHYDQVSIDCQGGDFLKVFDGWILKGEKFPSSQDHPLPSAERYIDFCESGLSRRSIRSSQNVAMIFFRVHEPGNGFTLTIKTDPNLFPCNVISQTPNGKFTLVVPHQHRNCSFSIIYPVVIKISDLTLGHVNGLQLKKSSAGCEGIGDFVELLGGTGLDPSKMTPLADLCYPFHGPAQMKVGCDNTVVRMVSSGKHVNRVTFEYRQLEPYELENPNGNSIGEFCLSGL
Briefly: activators of CRF receptor 2 with binding protein – uHTS hits, confirmation (AID 602473). It is filed as functional. Conditions: read-out: EC50_Mean.

SMILES strings stand for the structures. Activity calls are given as the source filed them. Bounds are passed on as bounds.

Cytochrome P450 2C19, sequence (P33261 whole entry): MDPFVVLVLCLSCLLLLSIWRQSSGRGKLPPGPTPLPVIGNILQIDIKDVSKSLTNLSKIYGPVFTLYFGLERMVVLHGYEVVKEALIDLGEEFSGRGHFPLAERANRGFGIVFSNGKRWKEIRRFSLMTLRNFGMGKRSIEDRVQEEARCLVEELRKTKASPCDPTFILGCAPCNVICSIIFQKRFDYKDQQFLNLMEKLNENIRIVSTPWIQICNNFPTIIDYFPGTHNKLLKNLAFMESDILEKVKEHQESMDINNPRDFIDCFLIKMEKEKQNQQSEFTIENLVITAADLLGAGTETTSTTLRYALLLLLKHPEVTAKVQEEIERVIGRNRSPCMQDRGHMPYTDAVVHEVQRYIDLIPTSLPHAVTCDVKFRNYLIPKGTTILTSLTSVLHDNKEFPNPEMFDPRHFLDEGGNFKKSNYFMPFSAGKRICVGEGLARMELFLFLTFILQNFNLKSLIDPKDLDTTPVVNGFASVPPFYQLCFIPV
Cytochrome P450 2C9, sequence (P11712 whole entry): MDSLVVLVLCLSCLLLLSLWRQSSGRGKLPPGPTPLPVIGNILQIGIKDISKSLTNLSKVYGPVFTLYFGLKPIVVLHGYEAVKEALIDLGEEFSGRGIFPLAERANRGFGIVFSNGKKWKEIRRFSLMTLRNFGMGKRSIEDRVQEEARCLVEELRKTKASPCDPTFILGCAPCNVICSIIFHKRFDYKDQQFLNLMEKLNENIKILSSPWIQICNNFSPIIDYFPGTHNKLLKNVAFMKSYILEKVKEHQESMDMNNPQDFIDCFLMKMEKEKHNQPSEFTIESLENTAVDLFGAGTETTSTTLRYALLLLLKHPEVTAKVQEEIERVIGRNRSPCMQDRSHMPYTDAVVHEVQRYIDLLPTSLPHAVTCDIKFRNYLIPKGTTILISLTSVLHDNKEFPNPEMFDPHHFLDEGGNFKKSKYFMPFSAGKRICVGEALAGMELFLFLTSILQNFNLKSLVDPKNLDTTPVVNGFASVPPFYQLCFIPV

By IC50 is commonly meant the concentration at which inhibition is half-maximal. Take `CSC1=NN(c2ccccc2)CN(c2ccccc2)N1C`: in experiment [1], the IC50 was 75.6 µM (active). The AC50 is the concentration at which the activity in the assay is half-maximal. On to `Cn1nc(-c2ccccc2)c(C(=O)Nc2ccc(Cl)cc2)c1Cl`, for which the values for the concentration at half-maximal activity (AC50) on Cytochrome P450 2C19 and at Cytochrome P450 2C9 were 2 µM (inconclusive) and 0.141 µM (inconclusive), respectively. For the compound `C[C@H](N)C(=O)OC(C)(C)Cc1ccc(Cl)cc1` [(S)-ALAPROCLATE], on Cytochrome P450 2C9, the AC50 was 39.8 µM (inconclusive).

As for `CSc1ccc(/C=N/n2c(C)cc(C)cc2=O)cc1`, the EC50 in [2] is 18.2 µM (active); with H4, 7.91 µM (active). For the compound `O=c1c(-c2ccccc2Cl)c[nH]n1-c1ccccc1`, the IC50 in experiment [1] was 97.4 µM (active). In the case of `CCOC(=O)c1cn2nc(Oc3ccccc3)ccc2n1`, the values for the EC50 (in experiment [2]; in the experiment with H4) were 7.96 µM (active) and > 120 µM (not active), respectively.

On to `Cc1cc(Oc2ccc(-c3ccccc3)cc2)n2ncnc2n1`, for which the IC50 in experiment [1] is 22.7 µM (active). For `COc1ccc(C(=O)N2CCN(CCCc3ccccc3)CC2)cc1OC`, in experiment [1], the IC50 is 123 µM (active).

Turning to `CCCC(=O)Nc1sc2c(c1C#N)CCCCC2`, the EC50 in experiment [2] was 0.102 µM (active); in the experiment on H4, > 120 µM (not active).

For the compound `Oc1ccc(N2CCN(C(c3cccs3)c3nnnn3CCc3ccccc3)CC2)cc1` (stereo unspecified), the IC50 in [1] was 47.3 µM (active). Turning to `COc1cccc(CN2CCN(C(=O)c3ccco3)CC2)c1OC`, the half-maximal inhibitory concentration (IC50) in experiment [1] was 163 µM (active). With `O=C(NCCc1ccccc1)C1=COCCO1`, the EC50 in [2] is 0.762 µM (active); in the experiment on H4, > 120 µM (not active). For `CC(/C=N/n1c(S)nnc1-c1ccco1)=C\c1ccccc1`, the half-maximal inhibitory concentration (IC50) in [1] is 108 µM (active).

Regarding `COc1ccc(N2CCN(c3ncccc3C#N)CC2)cc1`, in [1], the half-maximal inhibitory concentration (IC50) was 157 µM (active). As to `Cc1oc(-c2ccc(F)cc2)nc1CN(Cc1ccccn1)CC1CCCO1` (stereo unspecified), the values for the EC50 (in experiment [3]; in the experiment with Streptococcus; on Streptokinase A) were 30.4 µM (active), > 150 µM (not active) and > 150 µM (not active), respectively. Turning to `CCC(CC)C(=O)Nc1cccc(C(=O)Nc2ccc(OC)cc2[N+](=O)[O-])c1`, the AC50 on Cytochrome P450 2C19 is 0.316 µM (inconclusive); on Cytochrome P450 2C9, 0.891 µM (inconclusive). On to `CCN(CC)c1ccc(NC(=O)c2c(C)noc2C)cc1`, for which the EC50 (in experiment [3]; in the experiment on Streptococcus; at Streptokinase A) was > 150 µM (not active) throughout. As to `O=C(Nc1nnc(C2=COCCO2)o1)c1cccc(F)c1`, the EC50 in [3] is 1.83 µM (active); in the experiment on Streptococcus, 19.6 µM (active); at Streptokinase A, > 150 µM (not active). For the compound `CN1/C(=C\C=C(/C#N)C(=O)Nc2ccc(Cl)cc2)C(C)(C)c2ccccc21`, the EC50 in experiment [4] was 6.43 µM (active).

On to `COC(=O)[C@@]1(Cc2ccc(OC)cc2)[C@H]2c3cc(C(=O)N4CCCC4)n(Cc4cc(C)n(C)n4)c3C[C@H]2CN1C(=O)c1ccccc1`, for which the AC50 at Cytochrome P450 2C9 is 12.6 µM (inconclusive). `CCC[C@@H]1C[C@@]1(CCC)[C@@H](NP(=O)(c1ccccc1)c1ccccc1)c1ccc(C(=O)OC)cc1`: the values for the EC50 (in [3]; in the experiment on Streptococcus; at Streptokinase A) were 5.5 µM (active), 6.87 µM (active) and > 150 µM (not active), respectively.

Take `Oc1ccc(/C=N/NC(=S)N2CCOCC2)cc1`: in experiment [1], the IC50 is 63.7 µM (active). In the case of `Cc1[nH]c(-c2ccc(F)cc2)cc1C(=O)N1CCN(c2cccc(Cl)c2)CC1`, the EC50 in experiment [3] was 3.8 µM (active); with Streptococcus, 11.8 µM (active); on Streptokinase A, > 150 µM (not active). For the compound `CCc1c(O)n(-c2ccccc2)c(SCC(=O)NC(C)(C)C)nc1=O`, the AC50 at Cytochrome P450 2C19 was 35.5 µM (inconclusive); at Cytochrome P450 2C9, 20 µM (inconclusive). Regarding `Cc1ccc(NC(=O)CN2C(=O)N/C(=C/c3ccc(C)o3)C2=O)cc1`, on Cytochrome P450 2C9, the AC50 was 14.1 µM (inconclusive). Turning to `Nc1nc(Nc2ccc(Cl)cc2)nc(NCc2ccco2)c1[N+](=O)[O-]`, the EC50 is 7.12 µM (active) in [3], 26.4 µM (inconclusive) in the experiment with Streptococcus and > 150 µM (not active) on Streptokinase A. In the case of `Cc1ccc(C(=O)NC(=S)NNC(=O)COc2ccccc2C)cc1`, the EC50 in experiment [3] is 0.138 µM (active); with Streptococcus it was 0.555 µM (active); in experiment [4] it was 10.6 µM (active).

Take `COc1ccc(N2C(=O)/C(=C\NNS(=O)(=O)c3cc(C)ccc3C)c3ccccc3C2=O)cc1OC`: the EC50 in experiment [4] is 15.5 µM (active). Regarding `Cc1cc(C)nc(SCc2nnc(SCC(N)=O)n2Cc2ccco2)n1`, the AC50 at Cytochrome P450 2C9 is 3.55 µM (inconclusive). Regarding `Nc1ccc(-c2nc3nc(N)nc(N)c3nc2-c2ccc(N)cc2)cc1`, the EC50 in [3] is 2.94 µM (active); in the experiment on Streptococcus, > 150 µM (not active); on Streptokinase A, > 150 µM (not active). Turning to `CCCn1nc2cc(C(=O)NCc3ccc4c(c3)OCO4)ccc2c1OCC`, the results for the half-maximal activity concentration (AC50) at Cytochrome P450 2C19 and on Cytochrome P450 2C9 were 14.1 µM (inconclusive) and 10 µM (inconclusive), respectively. Regarding `Cc1ccc(-n2ncc(Cl)c2C(=O)NC2CC2)cc1`, in [2], the EC50 is 0.26 µM (active). As for `COc1ccc(CCN2CC(C(=O)NCCc3ccccn3)CCC2=O)cc1` (stereo unspecified), the EC50 (in experiment [3]; with Streptococcus; on Streptokinase A) was > 150 µM (not active) in each case.

For `CCN(CC)c1ccc(C2Nc3cccc4cccc(c34)N2)cc1`, the EC50 in experiment [2] was 16.8 µM (active); with H4, 27.2 µM (active). As to `COc1ccccc1CN1CC(C(=O)NCc2ncccc2C)CCC1=O` (stereo unspecified), the EC50 (in experiment [3]; in the experiment with Streptococcus; at Streptokinase A) was > 150 µM (not active) in each case.

On to `O=C(N/N=C/c1ccc(OCc2ccccc2)cc1)c1ccncc1`, for which the EC50 in [2] is 17.7 µM (active); with H4, 19.3 µM (active).
